Data reported in patent US5374626A, “5'-alkylphosphonylnucleosides as antivirals” (priority 1989, dated 1994).
Where two headings read alike, the source gives them in different places.

System: Influenza virus
Conditions: mice, ninth day

SMILES: NC(=O)c1ncn([C@@H]2O[C@H](CO)[C@@H](O)[C@H]2O)n1 [RIBAVIRIN]
- % PROTECTION (LUNG LESIONS) TEST (1.6 mg/kg (31 mcg/mouse) I.N., Wilcoxon * p < 0.01, ° p < 0.025): 15%
- % PROTECTION (LUNG LESIONS) TEST (100 mg/kg (2000 mcg/mouse) P.OS, * p < 0.01 Wilcoxon): 27%
